{"source": "patent US20180008629A1", "about": "“Compositions and Methods for Treating NLRP3 Inflammasome-Related Diseases and Disorders” (priority 2015, published 2018)", "key": {"NLRP3 inflammasome": {"target": "NLRP3 inflammasome (Mus musculus, UniProt Q8R4B8)", "sequence (Q8R4B8 whole entry)": "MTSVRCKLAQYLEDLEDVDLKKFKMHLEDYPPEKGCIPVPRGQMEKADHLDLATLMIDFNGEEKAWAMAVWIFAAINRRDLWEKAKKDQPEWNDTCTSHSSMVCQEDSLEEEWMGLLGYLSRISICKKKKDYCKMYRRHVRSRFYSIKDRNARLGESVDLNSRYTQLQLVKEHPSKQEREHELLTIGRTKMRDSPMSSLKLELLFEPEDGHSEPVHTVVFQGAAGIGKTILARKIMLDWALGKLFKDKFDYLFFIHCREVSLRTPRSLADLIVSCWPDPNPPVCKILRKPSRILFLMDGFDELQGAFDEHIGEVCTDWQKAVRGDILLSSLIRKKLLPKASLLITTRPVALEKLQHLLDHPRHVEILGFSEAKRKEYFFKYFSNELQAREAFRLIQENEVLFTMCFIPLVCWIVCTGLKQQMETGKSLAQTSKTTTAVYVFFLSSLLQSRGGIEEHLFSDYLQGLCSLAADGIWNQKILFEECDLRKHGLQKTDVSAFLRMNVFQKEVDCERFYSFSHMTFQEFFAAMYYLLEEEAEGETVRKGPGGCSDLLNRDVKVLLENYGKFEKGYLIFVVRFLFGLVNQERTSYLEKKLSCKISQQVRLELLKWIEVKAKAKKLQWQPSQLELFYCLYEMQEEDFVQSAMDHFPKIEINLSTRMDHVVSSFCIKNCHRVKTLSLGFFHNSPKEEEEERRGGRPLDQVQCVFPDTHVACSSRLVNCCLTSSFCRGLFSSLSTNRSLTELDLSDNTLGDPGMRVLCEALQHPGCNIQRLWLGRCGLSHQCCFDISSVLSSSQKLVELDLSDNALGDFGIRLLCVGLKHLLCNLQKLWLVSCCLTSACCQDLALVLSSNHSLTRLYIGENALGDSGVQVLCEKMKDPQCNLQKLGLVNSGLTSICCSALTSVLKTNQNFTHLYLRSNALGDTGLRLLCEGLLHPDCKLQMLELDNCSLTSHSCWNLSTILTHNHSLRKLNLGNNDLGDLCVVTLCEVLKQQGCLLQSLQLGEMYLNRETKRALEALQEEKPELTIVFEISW", "assay": "NLRP3 inflammasome activation in LPS primed BMDMs (caspase-1 / IL-1β immunoblot)", "type": "cell-based", "set-up": "endogenous in cells; host or cells: mouse bone marrow derived macrophages (A1)", "settings": "for effect on BHB's suppressive effects on ATP-induced NLRP3 inflammasome activation: co-treatment with BHB; for induction of caspase-1 cleavage by ROS damage: rotenone (10 μM) or hydrogen peroxide; for ATP-induced NLRP3 activation: BMDMs stimulated with LPS and ATP, caspase-1 immunoblot (FIG. 1B)", "protocol": "All steps were performed using sterile technique. Femurs were collected in RPMI (Life Technologies, Grand Island, N.Y.)+5% FBS (R5; Omega Scientific, Tarzana, Calif.). Both ends of the femur were then cut and the femur was flushed with R5. The bone marrow was centrifuge at 450 g for 5 min, the supernatant was decanted and red blood cells were lysed using ACK lysis buffer (Quality Biological, Gaithersburg, Md.). After neutralization with R5, bone marrow cells were centrifuged, resuspended in 10 ml of R5 and placed into a 6 well plate. Non-adherent cells were collected the following morning. The non-adherent cells were resuspended at 4×10^6 cells/ml in media consisting of 10 ml supernatant of non-adherent cells, 7.2 ml L929 conditioned media, 6.8 ml R5 and MCSF (long/ml; R&D Systems, Minneapolis, Minn.). An additional 2 ml of fresh media was added 4 d after isolation. Non-adherent cells were collected on day 7, separated by density gradient separation using Fico/Lite (Atlanta Biologicals, Flowery Branch, Ga.) and mononuclear cells were collected. Cells were rinsed twice with Dulbecco's PBS+2% FBS, and resuspended at 1×10^6 cells/ml. Cells were treated with ultrapure LPS (Invivogen, San Diego, Calif.) alone or in combination with 5 mM ATP (Sigma, St. Louis, Mo.) or 200 μM palmitate-BSA (Sigma). The BMDMs were also primed with ultrapure lipid A (10 μg/ml; Invivogen, San Diego, Calif.), lipoteichoic acid (10 μg/ml; Invivogen), or Pam3-CSK4 (10 μg/ml; Invivogen) for 4 hour and stimulated with various NLRP3 activators (ATP 5 mM; Sigma, MSU 250 ug/ml; Invivogen, Silica; 200 ug/ml; Invivogen, sodium palmitate; 200 μM; Sigma, ceramide C6 80 μg/ml; Cayman, and sphingosine 40 μM; Cayman, Ann Arbor, Mich.) for 1 hour together with D-BHB or L-(BHB) at indicated concentration. The cell supernatants and cell lysates were collected 1 h after BHB treatment and analyzed for caspase-1 and IL-1β.\nThe BMDM cell lysates were prepared using RIPA buffer and immediately snap frozen in liquid nitrogen. Samples were left on ice for 1 hour with vortexing every 10 min. Samples were then centrifuge at 14,000 g for 15 min, the supernatant was collected and the protein concentration was determined using the DC Protein Assay (Bio-RAD). […] The immune complexes were visualized by incubation with horseradish peroxidase-conjugated anti-rat or anti-rabbit secondary antibody (Amersham Biosciences). Immunoreactive bands were visualized by enhanced chemiluminescence (PerkinElmer Life Sciences)."}, "Gpr109a": {"test_system": "Gpr109a", "settings": "Taggart et al., 2005; cited from earlier work"}, "[1]": {"settings": "WT and Gpr109a−/− BMDMs stimulated with LPS and ATP"}}}
{"smiles": "CC[C@H](C)[C@H](NC(=O)[C@H]([C@@H](C)CC)N(C)C(C)=O)C(=O)N[C@H](C(=O)N[C@@H](CC(C)C)C(=O)[C@@]1(C)CO1)[C@@H](C)O", "note": "[epoxomicin, reference compound]", "values": [{"measurement": "effect on BHB's suppressive effects on ATP-induced NLRP3 inflammasome activation", "setting": "NLRP3 inflammasome; LPS primed BMDMs, ATP", "value": "did not abrogate"}]}
{"smiles": "CC(/C=C/C(=O)NO)=C\\[C@@H](C)C(=O)c1ccc(N(C)C)cc1", "note": "[trichostatin A, reference compound]", "values": [{"measurement": "inflammasome activation with HDAC inhibitor", "setting": "NLRP3 inflammasome; LPS primed and NLRP3 agonist treated macrophages, TSA (50 nM)", "value": "no effects"}]}
{"smiles": "O=CC[C@@H](O)[C@H](O)[C@H](O)CO", "note": "[2DG, 2-deoxyglucose, reference compound]", "values": [{"measurement": "mimicking of BHB's anti-inflammasome effect by inhibition of glycolysis", "setting": "NLRP3 inflammasome; LPS primed BMDMs, ATP, 2-deoxyglucose (1 mM)", "value": "did not mimic"}]}
{"smiles": "C[C@H](O)CC(=O)O", "note": "[(S)-BHB, (S)-3-hydroxybutyric acid]", "values": [{"measurement": "NLRP3 inflammasome activation (Nlrp3 induced caspase-1 activation)", "setting": "NLRP3 inflammasome; BMDMs (FIG. 6E)", "value": "efficiently blocked"}, {"measurement": "anti-inflammasome activity", "setting": "NLRP3 inflammasome; [1]", "value": "retains anti-inflammasome activity similar to bioactive D-(BHB)"}, {"measurement": "requirement of Gpr109a to block NLRP3", "setting": "NLRP3 inflammasome; [1]", "value": "does not require"}, {"measurement": "binding to Gpr109a", "setting": "Gpr109a", "value": "high affinity"}]}
{"smiles": "O=C(O)c1cccnc1", "note": "[niacin, reference compound]", "values": [{"measurement": "NLRP3 inflammasome activation with GPR109a ligand", "setting": "NLRP3 inflammasome; BMDMs activated with LPS and ATP, niacin (1 mM)", "value": "did not block"}]}
{"smiles": "C=C(C)[C@H]1Cc2c(ccc3c2O[C@@H]2COc4cc(OC)c(OC)cc4[C@@H]2C3=O)O1", "note": "[rotenone, reference compound]", "values": [{"measurement": "effect on BHB's suppressive effects on ATP-induced NLRP3 inflammasome activation", "setting": "NLRP3 inflammasome; LPS primed BMDMs, ATP", "value": "did not prevent"}, {"measurement": "induction of caspase-1 cleavage by ROS damage", "setting": "NLRP3 inflammasome; LPS primed BMDMs", "value": "not sufficient to induce"}]}
{"smiles": "N#C/C(=C\\c1ccc(-c2cc(Cl)ccc2Cl)o1)C(=O)Nc1cccc2ncccc12", "note": "[AGK2, reference compound]", "values": [{"measurement": "effect on BHB's suppressive effects on ATP-induced NLRP3 inflammasome activation", "setting": "NLRP3 inflammasome; LPS primed BMDMs, ATP", "value": "did not abrogate"}]}
{"smiles": "NOCC(=O)O", "note": "[aminoxyacetate, reference compound]", "values": [{"measurement": "effect on BHB's suppressive effects on ATP-induced NLRP3 inflammasome activation", "setting": "NLRP3 inflammasome; LPS primed BMDMs, ATP", "value": "did not affect"}]}
{"smiles": "CC(=O)CC(=O)O", "note": "[acetoacetate, reference compound]", "values": [{"measurement": "ATP-induced NLRP3 activation", "setting": "NLRP3 inflammasome; 10 mM", "value": "did not affect"}, {"measurement": "effect on the NLRP3 inflammasome", "setting": "NLRP3 inflammasome; control and Gpr109a deficient BMDMs, LPS and ATP, 10 mM", "value": "neither butyrate nor acetoacetate affect"}]}
{"smiles": "OO", "note": "[hydrogen peroxide, reference compound]", "values": [{"measurement": "effect on BHB's suppressive effects on ATP-induced NLRP3 inflammasome activation", "setting": "NLRP3 inflammasome; LPS primed BMDMs, ATP", "value": "did not prevent"}, {"measurement": "induction of caspase-1 cleavage by ROS damage", "setting": "NLRP3 inflammasome; LPS primed BMDMs", "value": "not sufficient to induce"}]}
{"smiles": "CC(=O)O", "note": "[acetate, reference compound]", "values": [{"measurement": "ATP-induced NLRP3 activation", "setting": "NLRP3 inflammasome; 10 mM", "value": "did not affect"}]}
{"smiles": "NC(=O)c1ccc[n+]([C@@H]2O[C@H](COP(=O)([O-])OP(=O)(O)OC[C@H]3O[C@@H](n4cnc5c(N)ncnc54)[C@H](O)[C@@H]3O)[C@@H](O)[C@H]2O)c1", "note": "[NAD^+, reference compound]", "values": [{"measurement": "caspase-1 activation in response to LPS and ATP", "setting": "NLRP3 inflammasome; BMDMs, NAD+ (10 μM)", "value": "did not block"}]}
{"smiles": "Cn1cnc(N)c2ncnc1-2", "note": "[3-methyladenine, reference compound]", "values": [{"measurement": "effect on BHB's suppressive effects on ATP-induced NLRP3 inflammasome activation", "setting": "NLRP3 inflammasome; LPS primed BMDMs, ATP", "value": "did not abrogate"}]}
